Test results: paper PMC5814047, “Peptidic inhibitors of insulin-degrading enzyme with potential for dermatological applications discovered via phage display” (PLoS ONE, 2018)
pIC50, pKi: −log10 of the molar value. Like-named read-outs stand apart in the source and are kept apart here. Bridge positions count the residues as written; N and C are the ends. Ends that are not written are not given here. Peptide text beside a SMILES is read from it.

What was measured:
[1] = target: T1, IDE (Homo sapiens, UniProt P14735); experiment: biochemical; conditions: for pIC50: FRET1, listed in Table 1, read-out: IC50, summary of results of the initial test; for pKi: substrate FRET1 5 μM, Ki from IC50 with the Cheng-Prusoff equation, read-out: Ki FRET1; for IC50 <500 uM?: initial test at 500 uM
T1 construct: made in house; host or cells: bacteria
T1 sequence (P14735 1-1019): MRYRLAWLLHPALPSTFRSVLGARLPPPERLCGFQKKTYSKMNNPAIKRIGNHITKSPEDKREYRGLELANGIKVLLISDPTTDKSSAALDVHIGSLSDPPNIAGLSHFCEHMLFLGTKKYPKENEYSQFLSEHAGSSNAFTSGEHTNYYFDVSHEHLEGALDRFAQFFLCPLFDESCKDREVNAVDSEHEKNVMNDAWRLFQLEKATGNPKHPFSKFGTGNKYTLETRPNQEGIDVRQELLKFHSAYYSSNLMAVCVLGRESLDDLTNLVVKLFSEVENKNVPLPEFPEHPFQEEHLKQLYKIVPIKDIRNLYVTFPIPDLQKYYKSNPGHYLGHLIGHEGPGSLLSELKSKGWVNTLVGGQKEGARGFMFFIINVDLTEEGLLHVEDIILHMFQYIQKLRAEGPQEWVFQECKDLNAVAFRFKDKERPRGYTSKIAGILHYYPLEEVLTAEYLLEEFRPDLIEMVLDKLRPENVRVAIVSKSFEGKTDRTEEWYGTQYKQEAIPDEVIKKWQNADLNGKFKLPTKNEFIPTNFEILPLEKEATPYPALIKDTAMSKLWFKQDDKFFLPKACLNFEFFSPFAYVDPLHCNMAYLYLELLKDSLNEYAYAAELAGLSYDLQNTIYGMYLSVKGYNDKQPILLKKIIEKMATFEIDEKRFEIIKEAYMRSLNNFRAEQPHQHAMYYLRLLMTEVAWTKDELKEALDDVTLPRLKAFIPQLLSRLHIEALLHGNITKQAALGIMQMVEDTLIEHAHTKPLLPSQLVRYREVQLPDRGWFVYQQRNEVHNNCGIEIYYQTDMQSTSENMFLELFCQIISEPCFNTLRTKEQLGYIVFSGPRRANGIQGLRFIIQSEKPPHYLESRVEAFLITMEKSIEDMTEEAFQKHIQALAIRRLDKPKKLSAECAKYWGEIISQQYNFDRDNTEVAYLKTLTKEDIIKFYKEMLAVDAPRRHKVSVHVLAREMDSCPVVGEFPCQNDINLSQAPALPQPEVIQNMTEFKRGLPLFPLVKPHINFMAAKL
Method: The six selected peptide sequences (C7C-1, C7C-2, 12–1, 12–2, 12–3 and 12–4) were synthesized, together with a variety of modifications, yielding a total of 25 peptides (Table 1). […] Other modifications included N-terminal acetylation and C-terminal amidation, included to mimic the charge state of the peptides when incorporated in the phage coat protein (Table 1).
IDE activity was quantified by monitoring the degradation of Mca-[…](Dnp) (FRET1, 5 μM), fluoresceinated and biotinylated amyloid ß-protein (FAßB; 500 nM) or recombinant human insulin (50 nM) in PBS supplemented with 0.05% BSA. […] In vitro activity assays incorporated recombinant human IDE (1 nM) purified from bacteria. For quantitation of insulin degradation in primary murine skin fibroblasts, cells (1 x 10^5/well) were plated in 96-well plates and maintained in DMEM supplemented with 10% fetal bovine serum (FBS), 2mM glutamine, penicillin and streptomycin. After addition of insulin (10 nM or 100 nM), samples of conditioned medium were removed daily and quickly frozen, then insulin levels were quantified in parallel by ELISA according to manufacturer’s recommendations (Crystal Chem, Downers Grove, IL, USA). Assessment of the activity of P12-3A against a variety of matrix-metalloproteases was conducted using the Matrix Metalloproteinase (MMP) Inhibitor Profiling Kit, Fluorometric RED (Enzo Life Sciences, Inc., Farmingdale, NY, USA) according to manufacturer’s recommendations using the broad-spectrum MMP inhibitor, NNGH, as a positive control.

[2] = target: T1, IDE; experiment: biochemical; conditions: for pIC50: from initial test at 10 uM using insulin (100 nM), read-out: IC50 (summary of results, listed in Table 1); for pKi: substrate recombinant human insulin 50 nM, Ki from IC50 with the Cheng-Prusoff equation
Description: The six selected peptide sequences (C7C-1, C7C-2, 12–1, 12–2, 12–3 and 12–4) were synthesized, together with a variety of modifications, yielding a total of 25 peptides (Table 1). For the 12-mer peptides, we synthesized variants of the parent peptides truncated at one or both termini, to test whether the entire sequence was necessary or not, in the hope that shorter, and thus less expensive, sequences might be effective. Other modifications included N-terminal acetylation and C-terminal amidation, included to mimic the charge state of the peptides when incorporated in the phage coat protein (Table 1). To assess the extent to which these peptide sequences inhibit IDE, we quantified their potency in protease activity assays using recombinant human IDE and two different substrates: FRET1, a fluorogenic peptide, and recombinant human insulin.
IDE activity was quantified by monitoring the degradation of Mca-[…](Dnp) (FRET1, 5 μM), fluoresceinated and biotinylated amyloid ß-protein (FAßB; 500 nM) or recombinant human insulin (50 nM) in PBS supplemented with 0.05% BSA. FRET1 degradation was measured by changes in fluorescence (λex = 340 nm, λem = 420 nm); FAßB degradation was monitored by fluorescence polarization (λex = 488 nm, λem = 525 nm), as described; and insulin degradation was quantified by ELISA. In vitro activity assays incorporated recombinant human IDE (1 nM) purified from bacteria. For quantitation of insulin degradation in primary murine skin fibroblasts, cells (1 x 10^5/well) were plated in 96-well plates and maintained in DMEM supplemented with 10% fetal bovine serum (FBS), 2mM glutamine, penicillin and streptomycin. After addition of insulin (10 nM or 100 nM), samples of conditioned medium were removed daily and quickly frozen, then insulin levels were quantified in parallel by ELISA according to manufacturer’s recommendations (Crystal Chem, Downers Grove, IL, USA). Assessment of the activity of P12-3A against a variety of matrix-metalloproteases was conducted using the Matrix Metalloproteinase (MMP) Inhibitor Profiling Kit, Fluorometric RED (Enzo Life Sciences, Inc., Farmingdale, NY, USA) according to manufacturer’s recommendations using the broad-spectrum MMP inhibitor, NNGH, as a positive control.

[3] = initial test, percent of initial velocity relative to DMSO-only controls, individual replicates, read-out: Percent activity at 500 uM, Replicate 1-4
[4] = judged as IC50 <100 uM?, individual replicates, read-out: Percent activity at 500 uM, Replicate 1-4
[5] = initial test, percent of initial velocity relative to DMSO-only controls, N 4, read-out: Percent activity at 500 uM, Mean
[6] = judged as IC50 <100 uM?, N 4, read-out: Percent activity at 500 uM, Mean

Row | Molecule | pIC50 [1] | remaining activity at 500 µM [1, 3] | remaining activity at 500 µM [1, 4] | pKi [1] | pIC50 [2] | pKi [2] | IC50 <500 uM? [1] | remaining activity at 500 µM [1, 5] | remaining activity at 500 µM [1, 6] | IC50 <10 uM? ([2]; initial test at 10 uM using insulin (100 nM)) | remaining activity at 0.016 µM ([2]; insulin ELISA, Cmpd 0.016 uM, Runs 1-3, read-out: Percent Activity (normalized source data)) | remaining activity at 0.08 µM ([2]; insulin ELISA, Cmpd 0.08 uM, Runs 1-3, read-out: Percent Activity (normalized source data)) | remaining activity at 0.4 µM ([2]; insulin ELISA, Cmpd 0.4 uM, Runs 1-3, read-out: Percent Activity (normalized source data)) | remaining activity at 2 µM ([2]; insulin ELISA, Cmpd 2 uM, Runs 1-3, read-out: Percent Activity (normalized source data)) | remaining activity at 10 µM ([2]; insulin ELISA, Cmpd 10 uM, Runs 1-3, read-out: Percent Activity (normalized source data))
1 | CC[C@H](C)[C@@H]1NC(=O)[C@H](CO)NC(=O)[C@H](Cc2c[nH]c3ccccc23)NC(=O)[C@H](Cc2c[nH]c3ccccc23)NC(=O)[C@H](CO)NC(=O)[C@@H](NC(=O)[C@H](C)N)CSSC[C@@H](C(=O)NCC(=O)O)NC(=O)[C@H](CC(C)C)NC(=O)[C@H](Cc2c[nH]cn2)NC1=O [C7C-1] (H-ACSWWSIHLCG-OH; disulfide 2-10 (inferred)) |  |  | 52% |  |  |  | YES | 11.4% | 44.2% | YES | 75% | 93.7% | 66.1% | 73.9% | 51.8%
2 | LNFPMPSR-NH2 [P12-2B] | < 3.30 | 81.3% |  | < 3.30 | < 5.00 | < 5.00 |  |  |  |  |  |  |  |  | 
3 | Ac-FPMPSRPH-NH2 [P12-2D] | < 3.30 |  | 88.8% | < 3.30 | < 5.00 | < 5.00 |  |  |  |  |  |  |  |  | 
4 | CC(C)C[C@@H]1NC(=O)[C@H](Cc2c[nH]cn2)NC(=O)CNC(=O)[C@H](C)NC(=O)[C@H](CC(N)=O)NC(=O)[C@@H](NC(=O)[C@H](C)N)CSSC[C@@H](C(=O)NCC(N)=O)NC(=O)[C@H](CCC(N)=O)NC(=O)[C@H](CO)NC1=O [C7C-2A] (H-ACNAGHLSQCG-NH2; disulfide 2-10 (inferred)) |  |  | 92.5% |  |  |  |  | 94.1% | 92.7% |  |  |  |  |  | 
5 | LNFPMPSRPHSS-NH2 [P12-2A] | < 4.00 | 31.8% | 58.5% | < 4.00 | < 5.00 | < 5.00 | YES |  |  |  |  |  |  |  | 
6 | LNFPMPSRPHSS [P12-2] | < 4.00 |  | 59.9% | < 4.00 | < 5.00 | < 5.00 | YES |  |  |  |  |  |  |  | 
7 | WSPISGKF-NH2 [P12-4B] | < 3.30 | 76.6% | 86.6% | ≤ 3.30 | < 5.00 | ≤ 5.00 |  |  |  |  |  |  |  |  | 

Results, then the molecule that gave them:

Row | pIC50 [1] | remaining activity at 500 µM [1, 3] | remaining activity at 500 µM [1, 4] | pKi [1] | pIC50 [2] | pKi [2] | IC50 <500 uM? [1] | remaining activity at 500 µM [1, 5] | remaining activity at 500 µM [1, 6] | IC50 <10 uM? ([2]; initial test at 10 uM using insulin (100 nM)) | remaining activity at 0.016 µM ([2]; insulin ELISA, Cmpd 0.016 uM, Runs 1-3, read-out: Percent Activity (normalized source data)) | remaining activity at 0.08 µM ([2]; insulin ELISA, Cmpd 0.08 uM, Runs 1-3, read-out: Percent Activity (normalized source data)) | remaining activity at 0.4 µM ([2]; insulin ELISA, Cmpd 0.4 uM, Runs 1-3, read-out: Percent Activity (normalized source data)) | remaining activity at 2 µM ([2]; insulin ELISA, Cmpd 2 uM, Runs 1-3, read-out: Percent Activity (normalized source data)) | remaining activity at 10 µM ([2]; insulin ELISA, Cmpd 10 uM, Runs 1-3, read-out: Percent Activity (normalized source data)) | Molecule
8 | < 3.30 | 74.3% | 91.1% | ≤ 3.30 | < 5.00 | ≤ 5.00 |  |  |  |  |  |  |  |  |  | Ac-PISGKFFQ-NH2 [P12-4D]
9 | < 3.30 |  | 72.7% | < 3.30 | < 5.00 | < 5.00 |  |  |  |  |  |  |  |  |  | Ac-MPSRPHSS [P12-2C]
10 |  | 30.3% | 63.2% |  |  |  | YES | 30.4% | 56.8% |  |  |  |  |  |  | CC[C@H](C)[C@@H]1NC(=O)[C@H](CO)NC(=O)[C@H](Cc2c[nH]c3ccccc23)NC(=O)[C@H](Cc2c[nH]c3ccccc23)NC(=O)[C@H](CO)NC(=O)[C@@H](NC(=O)[C@H](C)N)CSSC[C@@H](C(=O)NCC(=O)NCC(=O)NCC(=O)O)NC(=O)[C@H](CC(C)C)NC(=O)[C@H](Cc2c[nH]cn2)NC1=O [C7C-1B] (H-ACSWWSIHLCGGG-OH; disulfide 2-10 (inferred))
11 |  | 25.1% | 56.6% |  |  |  | YES | 22.5% | 59.5% |  |  |  |  |  |  | CC[C@H](C)[C@@H]1NC(=O)[C@H](CO)NC(=O)[C@H](Cc2c[nH]c3ccccc23)NC(=O)[C@H](Cc2c[nH]c3ccccc23)NC(=O)[C@H](CO)NC(=O)[C@@H](NC(=O)[C@H](C)N)CSSC[C@@H](C(=O)NCC(N)=O)NC(=O)[C@H](CC(C)C)NC(=O)[C@H](Cc2c[nH]cn2)NC1=O [C7C-1A] (H-ACSWWSIHLCG-NH2; disulfide 2-10 (inferred))
12 | < 3.30 | 59.7% | 77.6% | ≤ 3.30 | < 5.00 | ≤ 5.00 |  |  |  |  |  |  |  |  |  | Ac-SGKFFQRF [P12-4C]
13 |  | 48.4% | 76.4% |  |  |  |  | 54% | 72.8% |  |  |  |  |  |  | CC(C)C[C@@H]1NC(=O)[C@H](Cc2c[nH]cn2)NC(=O)CNC(=O)[C@H](C)NC(=O)[C@H](CC(N)=O)NC(=O)[C@@H](NC(=O)[C@H](C)N)CSSC[C@@H](C(=O)NCC(=O)O)NC(=O)[C@H](CCC(N)=O)NC(=O)[C@H](CO)NC1=O [C7C-2] (H-ACNAGHLSQCG-OH; disulfide 2-10 (inferred))
